The logP is a log measure of how a compound divides between an organic and an aqueous phase. Regarding `CCCOc1ccc(C(=O)CCN2CCCCC2)cc1`, the logP was 3.72.

`CC(C)(CN1CCCCC1)C(=O)c1ccccc1` had a logP of 3.78.

Regarding `CCCOc1ccc(C(=O)C(C)CN2CCCCC2)c(C)c1` (stereo not drawn), the logP was 4.

As for `Cc1ccccc1C(=O)C(C)CN1CCCCC1` (stereo not drawn), the logP was found to be 3.69.

`CCCOc1ccc(C(=O)CCN2CCCCC2)c(C)c1` showed a logP of 3.88.

As for `CCCOc1ccc(C(=O)C(C)(C)CN2CCCCC2)cc1`, the logP was 4.07. This logP and that of the molecule before are within 0.2 log units of each other.

Take `CCCOc1cc(C)c(C(=O)CCN2CCCCC2)c(C)c1`: the logP worked out at 3.84.

Regarding `CCCOc1cc(C)c(C(=O)C(C)CN2CCCCC2)c(C)c1` (stereo not drawn), the logP turned out to be 4.11.

The molecule `CCCOc1cc(C)c(C(=O)C(C)(C)CN2CCCCC2)c(C)c1` displayed a logP of 4.51.

In turn, `Cc1cc(C)c(C(=O)C(C)(C)CN2CCCCC2)c(C)c1` had a logP of 4.36. This logP and that of the molecule before are within 0.2 log units of each other.

On to `Cc1ccccc1C(=O)CCN1CCCCC1`, for which the logP was 3.54.

As to `Cc1cccc(C)c1C(=O)C(C)(C)CN1CCCCC1`, the logP came to 4.2.

Regarding `Cc1cccc(C)c1C(=O)C(C)CN1CCCCC1` (stereo not drawn), the logP is 3.81.

`Cc1ccc(C(=O)C(C)CN2CCCCC2)cc1` (stereo not drawn) registered a logP of 3.65. The logP values of the last two molecules are within 0.2 log units of each other.

The molecule `CCCOc1ccc(C(=O)C(C)CN2CCCCC2)cc1` (stereo not drawn) came in with a logP of 3.81.

`Cc1cc(C)c(C(=O)CCN2CCCCC2)c(C)c1` registered a logP of 3.7.

For the molecule `Cc1ccc(C(=O)C(C)CN2CCCCC2)c(C)c1` (stereo not drawn), the logP stood at 3.85.

In turn, `Cc1ccc(C(=O)C(C)(C)CN2CCCCC2)cc1` yielded a logP of 3.92.

`Cc1cccc(C)c1C(=O)CCN1CCCCC1` displayed a logP of 3.53.

The molecule `Cc1ccc(C(=O)CCN2CCCCC2)c(C)c1` showed a logP of 3.71.

As to `Cc1ccc(C(=O)CCN2CCCCC2)cc1`, the logP is 3.55.

`CC(CN1CCCCC1)C(=O)c1ccccc1` (stereo not drawn): the logP came to 3.51.

The molecule `Cc1cc(C)c(C(=O)C(C)CN2CCCCC2)c(C)c1` (stereo not drawn) showed a logP of 3.98.
